Reference: US12157749B2, “Borate-based drug and use thereof” (Chengdu Origin Biotechnology Limited Company, priority 2018, dated 2024)
Entries after “also recorded” stand apart in the source; their conditions may differ. Where a name gives a salt, the structure may show the parent alone. Marks after values point to notes of the source that are not given here.

Legend:
[1] = system: human multiple myeloma cells KMS-11; experiment: Activity test on human multiple myeloma cells KMS-11 (CCK-8, GI50); type: cell-based; conditions: KMS-11 cells, 48 h incubation
Method: Cells KMS-11 (human multiple myeloma cells from JCRB ((Japanese Collection of Research Bioresources Cell Bank), AJCRB1179) were cultured to logarithmic growth phase in RPMI 1640 medium containing 10% fetal bovine serum at 37° C. and 5% CO2. The cells were inoculated into a 96-well culture plate in proper quantity per well. After being cultured at 37° C. and 5% CO2 for 24 h, solvent control DMSO or test compounds dissolved in DMSO were added to the cells, wherein the starting concentration of the test compound was 0.3 μM, and diluted 3-fold each time for a total of 6 times to obtain 6 concentration gradients. The cells were incubated with the test compounds at 37° C. and 5% CO2 for 48 h. CCK-8 reagent was added to each well and the cells were incubated at 37° C. for 2 h according to the reagent instructions, and the optical density value of each well was read with spectrophotometer at 450 nm wavelength.
The optical density value of the cell was set as Tz value when the drug had null action on the cell, which represented the cell value when the drug was added. The optical density value of the cells was set as C value after the cells were acted by solvent control DMSO for 48 h; and the optical density value of the cell was set as Ti value after the cells were acted by the test compounds for 48 h. According to the method proposed by NIH—NCI in the United States, the cell response to drugs was calculated as follows: [(Ti−Tz)/(C−Tz)]×100 when Ti≥Tz; [(Ti−Tz)/Tz]×100 when Ti<Tz. According to the above calculation, the GI50 value (the concentration of the test compound as required when the cell growth inhibition rate was […]) was calculated by using the 4-parameter logistic model in XLfit software.

[2] = system: transplantation tumor of human multiple myeloma MM.1S; experiment: Transplantation tumor model of human multiple myeloma cells MM.1S in CB17-SCID mouse, dose 0.00831 mmol/kg (Activity Experiment Example 2); type: in vivo; conditions: for tumor weight (g): X ± SD, tumor dissected on day 19; for tumor weight (g) / tumor inhibition rate (%): five doses; for Relative tumor proliferation rate T/C(%): 0.00831 mmol/kg oral gavage twice a week; for tumor inhibition rate (%): from tumor weight
Method: The model used in this experiment was the transplantation tumor model of human multiple myeloma cells line MM.1 S in CB17-SCID mouse (purchased from Beijing Weitong Lihua Experimental Animal Technology Co., Ltd.). Cryopreserved MM.1S cells were cultured in vitro by conventionally way after resuscitation. The cells were collected in logarithmic growth phase and diluted with serum-free culture medium or PBS to form a tumor cell suspension with a concentration of 5×10^7/ml. The tumor cell suspensions prepared above were taken with a 1 ml syringe and injected subcutaneously into the left armpit backrest side of the mouse, and 0.2 ml was injected into each inoculation site. About 1 to 2 weeks after the cultured tumor cells were injected into CB17-SCID mouse, the tumors were touched under the armpit. When the tumor volume was more than 100 mm^3, the tumor volume was measured and calculated, and the mice were randomly divided into groups according to the tumor volume. The administration doses of different test samples were equivalent doses on a molar basis with a specific dose of 0.00831 mmol/kg. Administration mode and frequency: The test samples were administered by oral gavage with a volume of 10 ml/kg. The model group was given equal volume of solvent. The test samples were administered twice a week for five times (with administration dose of 0.00831 mmol/kg, i.e., the dose of MLN9708 being 4.30 mg/kg, the dose of the compound 6a being 4.67 mg/kg, and the dose of the compound 6b being 4.53 mg/kg) for a duration of 19 days. The administration was conducted on the 1st, 4th, 8th, 11th and 15th day, and the experiment was finished on the 19th day. The mental state, activity, eating and other general conditions of mice were observed every day, and the weight was measured twice a week. The short diameter (a) and long diameter (b) of each mouse tumor were measured with vernier caliper twice a week, and the tumor volume was calculated according to formula (a^2×b)/2. The relative tumor volume (RTV) was calculated according to the measured tumor volume, RTV=Vt/V0. Wherein, V0 was the tumor volume when random grouping (i.e. d0) and Vt was the tumor volume at each measurement (i.e. dn). According to the following formula, evaluation index of anti-tumor activity, the relative tumor proliferation rate T/C (%), was calculated: Note: TRTV is RTV of treatment group, and CRTV is RTV of model control group. Efficacy evaluation standard is T/C %≤40%, and after statistics procession, p<0.05 is considered significant. On the 19th day, after the tumor was weighted and measured, the mice in each group were killed, and the tumor was dissected and weighed. According to the tumor weight, the tumor inhibition rate (TGI) was calculated, TGI=((average tumor weight of model group−average tumor weight of administration group)/average tumor weight of model group)×100%.

[3] = system: transplantation tumor of human multiple myeloma MM.1S; experiment: Transplantation tumor model of human multiple myeloma cells MM.1S in CB17-SCID mouse, low dose 0.00554 mmol/kg (Activity Experiment Example 4); type: in vivo; conditions: for Relative tumor proliferation rate T/C(%): 0.00554 mmol/kg oral gavage twice a week; for tumor inhibition rate (%): from tumor weight at end of experiment
Method: The model used in this experiment was the transplantation tumor model of human multiple myeloma cells line MM.1S in CB17-SCID mouse. Cryopreserved MM.1S cells were cultured in vitro conventionally after resuscitation. The cells were collected in logarithmic growth phase and diluted with serum-free culture medium or PBS to form a tumor cell suspension with a concentration of 5×10^7/ml. The tumor cell suspensions prepared above were taken with a 1 ml syringe and injected subcutaneously into the left armpit backrest side of the mouse, and 0.2 ml was injected into each inoculation site. About 1 to 2 weeks after the cultured tumor cells were injected into the CB17-SCID mouse, the tumors were touched under the armpit. When the tumor volume was more than 100 mm^3, the tumor volume was measured and calculated, and the mice were randomly divided into groups according to the tumor volume. The administration doses of different test samples were equivalent doses on a molar basis with a specific dose of 0.00554 mmol/kg. Administration mode and frequency: the test samples were administered by oral gavage with a volume of 10 ml/kg. The model group was given equal volume of solvent. The test samples were administered twice a week for five times with an administration dose of 0.00554 mmol/kg, i.e., the dose of MLN9708 being 2.86 mg/kg, the dose of the compound 6q being 2.77 mg/kg, the dose of the compound 6f being 2.80 mg/kg, and the dose of the compound 6b being 3.02 mg/kg, for a duration of 17 days. The administration was conducted on the 1st, 5th, 8th, 12th and 15th day, and the experiment was finished on the 17th day. The mental state, activity, eating and other general conditions of mice were observed every day, and the weight was measured twice a week. The short diameter (a) and long diameter (b) of each mouse tumor were measured with a vernier caliper twice a week, and the tumor volume was calculated according to formula (a^2×b)/2. The relative tumor volume (RTV) was calculated according to the measured tumor volume, RTV=Vt/V0. Wherein, V0 was the tumor volume when random grouping (i.e. d0) and Vt was the tumor volume at each measurement (i.e. […]). According to the following formula, evaluation index of anti-tumor activity relative to the relative tumor proliferation rate T/C (%) was calculated: Note: TRTV is RTV of treatment group, and CRTV is RTV of model control group. According to “Technical Guidelines for Non-clinical Research of Cytotoxic Antitumor Drugs” issued by State Food and Drug Administration in China, the evaluation standard is T/C %≤40%, and after statistics procession, p<0.05 is considered significant. On the 19th day, after the tumor was weighted and measured, the mice in each group were killed, and the tumor was dissected and weighed. According to the tumor weight, the tumor inhibition rate (TGI) was calculated, TGI=((average tumor weight of model group−average tumor weight of administration group)/average tumor weight of model group)×100%.

[4] = day 19, 0.00831 mmol/kg oral gavage
[5] = X ± SD, tumor dissected at end of experiment, 0.00554 mmol/kg oral gavage, five doses
[6] = 0.00554 mmol/kg oral gavage, five doses

Work on `CC(C)C[C@H](NC(=O)CNC(=O)c1cc(Br)ccc1F)B(O)O` yielded a GI50 [1] of 35.7 nM.

In the case of `CC(C)C[C@H](NC(=O)CNC(=O)c1cc(Br)ccc1F)B1OC(=O)c2ccccc2O1`, the GI50 [1] was 34.1 nM.

With `Cc1ccc(F)c(C(=O)NCC(=O)N[C@@H](CC(C)C)B2OC(=O)C(CC(=O)O)(CC(=O)O)O2)c1` the GI50 [1] was 90.5 nM.

For `CC(C)C[C@H](NC(=O)CNC(=O)c1cc(F)ccc1F)B1OC(=O)C(CC(=O)O)(CC(=O)O)O1`, the GI50 [1] was 87.8 nM.

`CC(C)C[C@H](NC(=O)CNC(=O)c1cc(Br)ccc1Cl)B1OC(=O)C(CC(=O)O)(CC(=O)O)O1` [Compound 6a, (R)-2,2′-(2-(1-(2-(2-chloro-5-bromo-benzoylamino)acetylamino)-3-methylbutyl)-5-oxo-1,3,2-dioxaborolan-4,4-diyl)diacetic acid] was tested, and the “tumor weight (g)” value ([2]; 0.00831 mmol/kg oral gavage) was 2.471 ± 0.598^★★▴▴ g, the “Relative tumor proliferation rate T/C(%)” value ([2]; day 4) was 87.94% and the “Relative tumor proliferation rate T/C(%)” value ([2]; day 8) was 69.95%. For the same compound, the “Relative tumor proliferation rate T/C(%)” value ([2]; day 11) was 88.41^▴ %, the “Relative tumor proliferation rate T/C(%)” value ([2]; day 15) was 94.56^▴ % and the “Relative tumor proliferation rate T/C(%)” value ([2]; day 19) was 80.45%. For the same compound, the “tumor inhibition rate (%)” value [2, 4] was 31.63%.

With `CC(C)C[C@H](NC(=O)CNC(=O)c1cc(Br)ccc1F)B1OC(=O)C(CC(=O)O)(CC(=O)O)O1` [Compound 6b, (R)-2,2′-(2-(1-(2-(2-fluoro-5-bromo-benzoylamino)acetylamino)-3-methylbutyl)-5-oxo-1,3,2-dioxaborolan-4,4-diyl)diacetic acid] the “inhibition of tumor growth (in words)” value ([3]; 0.00554 mmol/kg oral gavage) was “can significantly inhibit tumor growth”, the “inhibitory effect on tumor growth compared with other test samples” value ([3]; 0.00554 mmol/kg oral gavage) was “significantly stronger inhibitory effect on tumor growth than MLN9708(p<0.01); also recorded: has the fastest effect on tumor growth and has the strongest inhibitory activity” and the “inhibitory effect sequence on transplantation tumor growth from strong to weak” value ([3]; 0.00554 mmol/kg oral gavage) was 6b>6f>6q>MLN9708. For the same compound, the “area under the curve of tumor volume vs. time curve, ascending sequence” value ([3]; FIG. 2, 0.00554 mmol/kg oral gavage) was “compound 6b<compound 6f<compound 6q”, the “tumor weight (g)” value [3, 5] was 0.360 ± 0.415^★★▴▴ g and the “Relative tumor proliferation rate T/C(%)” value ([3]; day 5) was 18%. For the same compound, the “Relative tumor proliferation rate T/C(%)” value ([3]; day 8) was 5.86^▴▴ %, the “Relative tumor proliferation rate T/C(%)” value ([3]; day 12) was 9.04% and the “Relative tumor proliferation rate T/C(%)” value ([3]; day 15) was 10.59^▴▴ %. For the same compound, the “Relative tumor proliferation rate T/C(%)” value ([3]; day 17) was 9.06^▴▴ %, the “tumor inhibition rate (%)” value [3, 6] was 87.75% and the “inhibition of tumor growth (in words)” value ([2]; 0.00831 mmol/kg oral gavage) was “can significantly inhibit tumor growth”. The “inhibitory effect on tumor growth compared with MLN9708 and compound 6a” value ([2]; 0.00831 mmol/kg oral gavage) was “significantly stronger inhibitory effect on tumor growth than MLN9708(p<0.01) and the compound 6a(p<0.01)”, the “tumor weight (g)” value ([2]; 0.00831 mmol/kg oral gavage) was 0.063 ± 0.072^★★ g and the “Relative tumor proliferation rate T/C(%)” value ([2]; day 4) was 48.84^▴ %. For the same compound, the “Relative tumor proliferation rate T/C(%)” value ([2]; day 8) was 4.3^▴▴ %, the “Relative tumor proliferation rate T/C(%)” value ([2]; day 11) was 1.75^▴▴ % and the “Relative tumor proliferation rate T/C(%)” value ([2]; day 15) was 1.12^▴▴ %. The “Relative tumor proliferation rate T/C(%)” value ([2]; day 19) was 0.5^▴▴ %, the “tumor inhibition rate (%)” value [2, 4] was 98.26% and the “inhibitory effect on tumor growth compared with compound 6c” value ([2]; same method and procedure, data not shown) was “significantly stronger inhibitory effect on tumor growth of the transplantation tumor of human multiple myeloma MM.1S in SCID mouse than that of the compound 6c”.

With `CC(C)C[C@H](NC(=O)CNC(=O)c1cc(Cl)ccc1Cl)B1OC(=O)C(CC(=O)O)(CC(=O)O)O1` [MLN9708, Ixazomib Citrate, reference compound] the “inhibition of tumor growth (in words)” value ([3]; 0.00554 mmol/kg oral gavage) was “no effect on inhibiting tumor growth”, the “inhibitory effect sequence on transplantation tumor growth from strong to weak” value ([3]; 0.00554 mmol/kg oral gavage) was 6b>6f>6q>MLN9708 and the “tumor weight” value [3, 5] was 2.953 ± 0.668 g. For the same compound, the “Relative tumor proliferation rate T/C(%)” value ([3]; day 5) was 90.08%, the “Relative tumor proliferation rate T/C(%)” value ([3]; day 8) was 112.42% and the “Relative tumor proliferation rate T/C(%)” value ([3]; day 12) was 137.07%. The “Relative tumor proliferation rate T/C(%)” value ([3]; day 15) was 97.25%, the “Relative tumor proliferation rate T/C(%)” value ([3]; day 17) was 84.29% and the “tumor inhibition rate (%)” value [3, 6] was −0.48%. The “tumor weight (g)” value ([2]; 0.00831 mmol/kg oral gavage) was 1.782 ± 1.361^★★▴▴ g, the “Relative tumor proliferation rate T/C(%)” value ([2]; day 4) was 84.97% and the “Relative tumor proliferation rate T/C(%)” value ([2]; day 8) was 59.75%. For the same compound, the “Relative tumor proliferation rate T/C(%)” value ([2]; day 11) was 51.05%, the “Relative tumor proliferation rate T/C(%)” value ([2]; day 15) was 41.67% and the “Relative tumor proliferation rate T/C(%)” value ([2]; day 19) was 56.1%. For the same compound, the “tumor inhibition rate (%)” value [2, 4] was 50.69%.

With `CC(C)C[C@H](NC(=O)CNC(=O)c1cc(Br)ccc1F)B1OC(=O)C(CC(=O)O)(CC(=O)O)O1` [drawing 66] the GI50 [1] was 39.7 nM.

Work on `CC(C)C[C@H](NC(=O)CNC(=O)c1cc(C(F)(F)F)ccc1F)B1OC(=O)C(CC(=O)O)(CC(=O)O)O1` [drawing 67] yielded a GI50 [1] of 57.8 nM.

`CC(C)C[C@H](NC(=O)CNC(=O)c1cc(Br)ccc1F)B1OC(=O)C(c2ccccc2)O1` (some centres unmarked) [drawing 69] gave a GI50 [1] of 29.9 nM.

`CC(C)C[C@H](NC(=O)CNC(=O)c1cc(F)ccc1Br)B1OC(=O)C(CC(=O)O)(CC(=O)O)O1` [drawing 70] gave a GI50 [1] of 35.7 nM.

`CC(C)C[C@H](NC(=O)CNC(=O)c1cc(Cl)ccc1F)B1OC(=O)C(CC(=O)O)(CC(=O)O)O1` [drawing 71] gave a GI50 [1] of 59 nM.
